This assay deals with primary rat dopaminergic neurons. As to the kind of experiment: ROS production in primary rat dopaminergic TH-positive neurons after 6-OHDA injury. Conditions: after injury with 6-OHDA (20 µM, 4 h); FIG. 1. The class given is cell-based. As for the experimental part: Rat dopaminergic neurons were cultured as described by Visanji et al., 2008. Briefly, pregnant female rat of 15 days of gestation are sacrificed using a deep anesthesia with CO2 chamber and a cervical dislocation. The midbrains obtained from 15-day-old rat embryos are dissected under a microscope. The embryonic midbrains are removed and placed in ice-cold medium of Leibovitz (L15) containing 2% of Penicillin- Streptomycin (PS) and 1% of bovine serum albumin (BSA). The ventral portion of the mesencephalic flexure, a region of the developing brain rich in dopaminergic neurons, is used for the cell preparations.
The midbrains are dissociated by trypsinisation for 20 min at 37° C. (solution at a final concentration of 0.05% trypsin and 0.02% EDTA). The reaction is stopped by the addition of Dulbecco’s modified Eagle’s medium (DMEM) containing DNAase I grade II (0.5 mg/mL) and 10% of foetal calf serum (FCS). Cells are then mechanically dissociated by 3 passages through a 10 mL pipette. Cells are then centrifuged at 180 x g for 10 min at +4° C. on a layer of BSA (3.5%) in L15 medium. […] Viable cells are counted in a Neubauer cytometer using the trypan blue exclusion test. […] Six wells per condition are assessed. […]

On to `O=C(Nc1ccc2c(c1)S(=O)(=O)N(c1ccc(Br)cc1)CCO2)c1cnc(-c2ccccc2)[nH]1` [Compound 1331, N-(2-(4-bromophenyl)-1,1-dioxido-3,4-dihydro-2H-benzo[b][1,4,5]oxathiazepin-8-yl)-2-phenyl-1H-imidazole-5-carboxamide], for which the ROS production entry was “reduction in ROS”.

The record behind these values is patent US20230218632A1, “CYCLIC SULFONAMIDE DERIVATIVES AS TRAP1 MODULATORS AND USES THEREOF” (Amathus Therapeutics, Inc., priority 2020, published 2023).
